Data published in patent US20240374626A1, “METHODS OF ENHANCING MILK PRODUCTION IN LACTATING MAMMALIAN SUBJECTS” (priority 2023, published 2024).

How the values were obtained:
HC11 cells = test: Milk production markers in differentiated HC11 (milk domes, Csn2 RT-qPCR, CSN2 WB, PLIN2 ICC); assay type: cell-based, mouse; conditions: HC11, doxorubicin 50 nM, differentiated
Description: The HC11 cell line was obtained from American Type Culture Collection (ATCC) and routinely checked for mycoplasma (Mycoplasma PCR kit, ABM, G238). Undifferentiated HC11 cells were cultured in growing medium (RPMI-1640; Thermo Fisher Scientific, 72400047), supplemented with 10% FBS, 5 μg/ml insulin (Millipore-Sigma, 16634), 10 ng/ml epidermal growth factor (EGF; Preprotech, AF-100-15) and 1× AntiAnti (Thermo Fisher Scientific, 15240112) at 37° C. with 5% CO2. Cells were grown to confluency and maintained in growing medium for 2 days, until they became competent. Competent HC11 cells were primed for differentiation by culturing them in priming medium [RPMI-1640 supplemented with 5 μg/ml insulin, 1 μM dexamethasone (Millipore-Sigma, D4902-1 G) and 1× Anti-Anti] for 24 h at 37° C. with 5% CO2. To induce differentiation, primed HC11 cells were cultured in DIP Medium [RPMI-1640, supplemented with 10% FBS, 5 μg/ml insulin, 1 μM dexamethasone, 1× anti-anti and 3 μg/ml Prolactin (NHPP, oPRL-21)] at 37° C. with 5% CO2.
[…] Drugs were maintained through the differentiation process and added with every change of media.
Whole cell lysates were prepared using 1×NP40 lysis buffer (Thermo Fisher Scientific, FNN0021) supplemented with Pierce Protease and Phosphatase inhibitors (Thermo Fisher Scientific, A32959). Cells were washed with ice-cold PBS (GIBCO, 14190136) and lysed direct in buffer and kept at 4° C. rocking at 70 rpm for 30 min. Lysed cells were collected and centrifuged at 12,000 rpm at 4° C. for 15 min. Protein concentration was quantified using Qubit 4 fluorometer (Thermo Fisher, Q33238). Samples were resolved by SDS page and transferred to polyvinylidene difluoride (PVDF, Millipore-Sigma, IPVH00010) for 60 min at 250 mA. Immunoblots were blocked for 1 h at room temperature using either 5% non-fat milk or 5% BSA TBST. Primary antibodies [anti-GAPDH (SCBT, sc-365062), anti-Actin (SCBT, sc-47778), anti-Cyclin B1 (SCBT, sc-245), anti-Cyclin E1 (Millipore-Sigma, SAB4503516) and anti-CSN2 (ABclonal, A12749)] were incubated overnight at 4° C. in a rocker. HRP-conjugated secondary antibodies ([…]) were used for 1 h at room temperature. Immunoblots were developed using Clarity ECL (Bio-Rad), detected using a Bio-Rad ChemiDoc MP Image, and quantified using ImageJ.
HC11 cells were fixed using ice-cold MeOH for 10 min. After washing with 1×PBS, cells were incubated for 1 h at room temperature with primary antibodies [anti-γH2AX (SCBT, sc-517348), anti-pATR (Genetex, GTX128145), anti-PLIN2 (generously provided by Jim McManaman)] in a humid incubation chamber. After incubation, cells were washed three times using 1×PBS and incubated for 1 h at room temperature in darkness using corresponding Alexa Fluor AffiniPure secondary antibodies (Jackson ImmunoResearch) and Phalloidin-iFluor 488 Reagent (Abcam, ab176753) when indicated. Cells were washed three times using 1×PBS and incubated with Hoechst 33342 (AnaSpec, AS-83218) for 10 min. Cells were mounted using fluoromount-G (Southern Biotech, 0100-01) and visualized using Zeiss Axio Imager Microscope. Integrated density of PLIN2, nuclear γH2AX and nuclear pATR was quantify using ImageJ.
For RNA isolation from FACS purified populations, mammary gland cell suspensions were blocked using Mouse BD Fc Block™ (BD Biosciences) for 10 min. Cells were subsequently resuspended on 1×PBS at a density of 10^7 cells/ml and stained with the following antibodies for 30 min on ice: anti-CD24 PE (Stem Cell Technologies, 60099PE.1), anti-CD29 PE-Cy7 (BioLegend, 102222), anti-CD45-APC (BioLegend,105826), Ter119-APC (BD Biosciences, 561033), CD31-ACP (BD Biosciences, 551262). Propidium iodide at a final concentration of 0.5 μg/ml was used for the discrimination of dead cells. Stromal, basal and luminal mammary populations were sorted using a BD FACS Aria II Cell Sorter. […]

γH2AX = test: Contralateral intraductal injection: γH2AX IHC in CK8+ luminal cells of MG; assay type: in vivo, mouse; conditions: doxorubicin IDI (1.5 μg per gland) at PD12.5 vs contralateral DMSO vehicle, 24 h post-injection (PD13.5)
Description: Nulliparous analysis was performed using adult (10-12-week-old) female mice. For timed pregnancies and lactation analysis, CD-1 pregnant adult females were obtained from Charles Rivers. Embryos were examined at the time of mammary gland harvesting to confirm pregnancy state. […] Plugged mice were considered to be PD0.5 on the day of the observed plug. All females used in this study were age matched.
Mice were anesthetized with isoflurane (VetOne, 501017) Prior to intraductal injections, hair was removed from around the nipples using Nair hair remover. Injections into the duct of the nipple were performed with 33 G needles (Hamilton, 7803-05) and a volume of 40 μl per gland. Right inguinal, abdominal and thoracic glands were injected with doxorubicin (1.5 μg per gland, Cayman Chemical, 15007), nucleosides (40 μl per gland, Millipore-Sigma, ES-008-D) or Mk-1775 (50 μg per gland, Cayman Chemical, 21266), and left glands were injected with PBS or DMSO (Thermo Scientific, BP231) diluted in PBS.
Mammary gland tissue was fixed in 10% neutral buffered formalin (EMD Millipore, MR0458682) at 4° C. overnight. Fixation was quenched using 0.2% glycine (Fisher Scientific, BP381) in PBS, for 1 h at room temperature. […] Integrated density of nuclear γH2AX and pATR was quantified using ImageJ.

COc1cccc2c1C(=O)c1c(O)c3c(c(O)c1C2=O)C[C@@](O)(C(=O)CO)C[C@@H]3O[C@H]1C[C@H](N)[C@H](O)[C@H](C)O1 [doxorubicin]
CSN2, WB (HC11 cells): increase
γH2AX in CK8+ luminal cells (γH2AX): Increased
